Measurements: US20230295215A1, “NOVEL MRNA 5'-END CAP ANALOGS MODIFIED WITHIN PHOSPHATE RESIDUES, RNA MOLECULE INCORPORATING THE SAME, USES THEREOF AND METHOD OF SYNTHESIZING RNA MOLECULE OR PEPTIDE” (Uniwersytet Warszawski, priority 2020, published 2023)

Experiments:
[1] = cited from earlier work; for translation efficiency: relative to the compound without modification
[2] = tested on: 3T3-L1 and JAWS II cells; assay: Gaussia luciferase protein expression from capped mRNA transfected into mammalian cells; assay type: cell-based, murine; settings: mRNAs modified with the two trinucleotide cap analogs compared with each other
Description: Transcripts incorporating at the 5′ end compounds according to the invention or benchmark (reference) compounds were obtained using in vitro transcription method in the presence of RNA polymerase T7 and DNA template containing the […] promoter sequence for this polymerase. In order to analyze the capping efficiency, short RNA transcripts were obtained as described in Example 9. The transcription yielding RNAs of 35 nt in length was carried out in the presence of selected compounds according to the invention or reference compounds representing state of the art and containing the same modifications of phosphate groups as the analyzed compounds according to the invention. The resulting RNAs were treated with DNAzyme 10-23 in order to shorten them and reduce 3′ end heterogeneity and analyzed in 15% polyacrylamide gel, which enabled separation of capped and uncapped RNAs. In order to analyze protein expression yield in mammalian cells, mRNAs carrying compounds according to the invention or reference compounds and encoding Gaussia luciferase as a reporter gene were obtained. […] The obtained mRNAs were introduced into mammalian cell lines (fibroblasts—3T3-L1 and dendritic cells—JAWS II) using transfection with lipofectamine, followed by measuring Gaussia luciferase expression in the extracellular medium at appropriate time intervals by the luminescence method as described in Example 13. […]

Molecule: CO[C@@H]1[C@H](O)[C@@H](COP(=O)(O)OP(=O)([S-])OP(=O)(O)OC[C@H]2O[C@@H](n3cnc4c(=O)[nH]c(N)nc43)[C@H](O)[C@@H]2O)O[C@H]1n1c[n+](C)c2c(O)nc(N)nc21 (stereo partly drawn) [β-S-ARCA]
- translation efficiency of mRNA ([1]; in vitro and in vivo): significant increase in translation efficiency

Molecule: COC1C(O)C(COP(=O)(O)OP(=O)(S)OP(=O)(O)OCC2OC(n3cnc4c(=O)[nH]c(N)nc43)C(O)C2O)OC1n1c[n+](C)c2c(=O)[nH]c(N)nc21 (centres unmarked) [m2^7,2′-OGppspG D2]
- translation efficiency [1]: increases

Molecule: m^7GppCH2pAmpG
- translational properties [2]: very similar translational properties

Molecule: m2^7,3′-OGppCH2pG
- protein expression ([1]; compared to mRNA obtained with m2^7,3′-OGpppG (no O by CH2 substitution)): significant reduction in protein expression
- translation efficiency [1]: decreases
